Experimental data: patent US6489331B1, “Remedies for diabetes” (Kyowa Hakko Kogyo Co., Ltd., priority 1998, dated 2002)
Structures can show the parent of a compound that is named as a salt. Where two headings read alike, the source gives them in different places.

Experiments:
MIN6 cell = experiment: Insulin secretion enhancing action in cultured β-cell (MIN6); type: cell-based; settings: in the presence of 14.5 mM glucose; drug concentration 1.0 μM
Protocol: Culture of the MIN6 cells and insulin secretion test utilizing the MIN6 cells were performed basically according to the methods described in literature (Ishihara et al., Diabetologia, vol. 36, pp.1139-1145, 1993). The effect of a compound on the insulin secretion in the presence of 14.5 mM glucose was determined by measuring insulin amounts in cell culture supernatants collected as follows. MIN6 cells cultured on a 24-well plate were washed twice by using 1 ml of Buffer A (119 mM sodium chloride, 4.74 mM potassium chloride, 2.54 mM calcium chloride, 1.19 mM magnesium sulfate, 1.19 mM potassium dihydrogenphosphate, 10 mM 2-[4-(2-hydroxyethyl)-1-piperazinyl]ethanesulfonic acid, 0.1% bovine serum albumin, pH 7.3) containing 2 mM glucose, and then were incubated in 1 ml of Buffer A containing 2 mM glucose at 37° C. for 45 minutes. After the incubation, the culture supernatant was changed to Buffer A (0.9 ml) containing a test compound at various concentrations and 2 mM glucose, and the cells were further incubated at 37° C. for 15 minutes. The MIN6 cells were stimulated with glucose by the addition of Buffer A (0.1 ml) containing 127 mM glucose to the culture (final glucose concentration: 14.5 mM). After the stimulation, the cells were further incubated at 37° C. for 45 minutes, and then the culture supernatant was collected.
Separately, the effect of a compound on the insulin secretion in the presence of 5 mM glucose was determined by measuring insulin amounts in cell culture supernatants collected as follows. MIN6 cells cultured on a 24-well plate were washed twice by using 1 ml of Buffer A containing 5 mM glucose, and then the culture supernatant was changed to Buffer A (0.9 ml) containing a test compound at various concentrations and 5 mM glucose. Then, the cells were incubated at 37° C. for 45 minutes (final glucose concentration: 5 mM), and the culture supernatant was collected.
After the culture supernatant was diluted with a phosphate buffer containing 1% bovine serum albumin, 0.1% Tween 20, 0.12% disodium ethylenediaminetetraacetate and 0.1% sodium azide, antibody-reactive insulin secreted in the culture supernatant was quantified by enzyme immunoassay or radio immunoassay. […] The results are indicated as averages (avg) for 3 to 4 samples with standard error values (se).

Wistar male rats [1] = settings: iv; for Area of plasma insulin, test compound-administered group: after glucose-loading (10 mg/kg iv)
Protocol: Wistar male rats (body weight: about 250 g) starved for 18 hours were anesthetized by intraperitoneal administration of sodium pentobarbital (50 mg/kg), and fixed at the dorsal position. Cannulas were inserted into the right common carotid artery for blood collection and the left femoral vein for administration of drug and glucose, respectively. To these rats were intravenously administered 500 U/kg of heparin to prevent blood coagulation. After about 0.2 ml of blood was collected, a drug was intravenously administered. Two minutes after the administration of the drug, blood was collected, and then glucose (10 mg/kg) was immediately administered intravenously. Then, blood was collected every 20 seconds for 2 minutes. Insulin concentration in plasma obtained by centrifugation was measured by radioimmunoassay. From an insulin concentration which increased after the glucose-loading, its area was calculated and considered the amount of secreted insulin. The insulin level was indicated as the amount of rat insulin (ng/mL).

dd male mice = experiment: Acute toxicity test (minimum lethal dose); type: in vivo; settings: po, mortality after seven days
Protocol: A test compound was orally administered to dd male mice (body weight: 20±1 g, n=3). Mortality rate after seven days was measured to determine minimum lethal dose (MLD).

Wistar male rats [2] = experiment: Hyperglycemia suppression action after glucose-loading; type: in vivo; settings: 30 mg/kg, po
Protocol: These rats were used for the experiment after starvation for 18 hours. A test compound was orally administered 1 hour before oral administration of glucose (2 g/kg). Jugular venous blood was collected before the administration of test compound, before the glucose-loading, 5, 10, 15, 30, 45 and 60 minutes after the glucose-loading, and plasma glucose concentration was measured (enzymatic method). The insulin level was indicated as amount of rat insulin (ng/mL).

CCCN1C(=O)N2C[C@@H](Cc3ccccc3)N=C2c2[nH]c(C3CCCC3)nc21 [Compound 16, (R)-8-benzyl-2-cyclopentyl-7,8-dihydro-4-propyl-1H-imidazo[2,1-i]purin-5(4H)-one hydrochloride]
Amount of secreted insulin (ng/ml) avg (MIN6 cell): 229.5 ng/mL | % Ratio based on control (area of plasma insulin) (Wistar male rats [1]; 3 mg/kg): 246 ± 19% | Area of plasma insulin, test compound-administered group (Wistar male rats [1]; 3 mg/kg): 17.28 ± 1.35 ng·s/mL | minimum lethal dose (MLD) (dd male mice): not less than 300 mg/kg | Plasma glucose concentration (Wistar male rats [2]; 0 minute (before glucose-loading)): 102 ± 4.6 mg/dL | Plasma glucose concentration (Wistar male rats [2]; 5 minutes after glucose-loading): 147 ± 5.7 mg/dL | Plasma glucose concentration (Wistar male rats [2]; 10 minutes after glucose-loading): 183 ± 9.1 mg/dL | Plasma glucose concentration (Wistar male rats [2]; 15 minutes after glucose-loading): 186 ± 8.7 mg/dL | Plasma glucose concentration (Wistar male rats [2]; 30 minutes after glucose-loading): 167 ± 3.3 mg/dL | Plasma glucose concentration (Wistar male rats [2]; 45 minutes after glucose-loading): 165 ± 4.8 mg/dL | Plasma glucose concentration (Wistar male rats [2]; 60 minutes after glucose-loading): 178 ± 4.7 mg/dL | Plasma glucose concentration (Wistar male rats [2]; −1 minute): 114 ± 4.5 mg/dL

CCCN1C(=O)N2CC(Cc3ccc(Br)cc3)N=C2c2[nH]c(C3CCCC3)nc21 (stereo not drawn) [Compound 23, 8-(4-bromobenzyl)-2-cyclopentyl-7,8-dihydro-4-propyl-1H-imidazo[2,1-i]purin-5(4H)-one hydrochloride]
Amount of secreted insulin (ng/ml) avg (MIN6 cell): 249.9 ng/mL | % Ratio based on control (area of plasma insulin) (Wistar male rats [1]; 1 mg/kg): 228 ± 50% | Area of plasma insulin, test compound-administered group (Wistar male rats [1]; 1 mg/kg): 11.85 ± 2.58 ng·s/mL

CCCN1C(=O)N2CC(CCc3ccccc3)N=C2c2[nH]c(C3CCCC3)nc21 (stereo not drawn) [Compound 31, 2-cyclopentyl-7,8-dihydro-8-phenethyl-4-propyl-1H-imidazo[2,1-i]purin-5(4H)-one hydrochloride]
Amount of secreted insulin (ng/ml) avg (MIN6 cell): 220.5 ng/mL | % Ratio based on control (area of plasma insulin) (Wistar male rats [1]; 1 mg/kg): 173 ± 16% | Area of plasma insulin, test compound-administered group (Wistar male rats [1]; 1 mg/kg): 9.00 ± 0.84 ng·s/mL

CCCc1nc2c([nH]1)C1=N[C@H](Cc3ccccc3)CN1C(=O)N2CCC [Compound 35, (R)-8-benzyl-7,8-dihydro-2,4-dipropyl-1H-imidazo[2,1-i]purin-5(4H)-one hydrochloride]
Amount of secreted insulin (ng/ml) avg (MIN6 cell): 232.4 ng/mL | % Ratio based on control (area of plasma insulin) (Wistar male rats [1]; 1 mg/kg): 178 ± 23% | Area of plasma insulin, test compound-administered group (Wistar male rats [1]; 1 mg/kg): 15.69 ± 2.04 ng·s/mL
